Data set [1] deals with T1, Solute carrier organic anion transporter family member 1A4 (Rattus norvegicus, UniProt O35913).
T1 sequence (O35913 whole entry): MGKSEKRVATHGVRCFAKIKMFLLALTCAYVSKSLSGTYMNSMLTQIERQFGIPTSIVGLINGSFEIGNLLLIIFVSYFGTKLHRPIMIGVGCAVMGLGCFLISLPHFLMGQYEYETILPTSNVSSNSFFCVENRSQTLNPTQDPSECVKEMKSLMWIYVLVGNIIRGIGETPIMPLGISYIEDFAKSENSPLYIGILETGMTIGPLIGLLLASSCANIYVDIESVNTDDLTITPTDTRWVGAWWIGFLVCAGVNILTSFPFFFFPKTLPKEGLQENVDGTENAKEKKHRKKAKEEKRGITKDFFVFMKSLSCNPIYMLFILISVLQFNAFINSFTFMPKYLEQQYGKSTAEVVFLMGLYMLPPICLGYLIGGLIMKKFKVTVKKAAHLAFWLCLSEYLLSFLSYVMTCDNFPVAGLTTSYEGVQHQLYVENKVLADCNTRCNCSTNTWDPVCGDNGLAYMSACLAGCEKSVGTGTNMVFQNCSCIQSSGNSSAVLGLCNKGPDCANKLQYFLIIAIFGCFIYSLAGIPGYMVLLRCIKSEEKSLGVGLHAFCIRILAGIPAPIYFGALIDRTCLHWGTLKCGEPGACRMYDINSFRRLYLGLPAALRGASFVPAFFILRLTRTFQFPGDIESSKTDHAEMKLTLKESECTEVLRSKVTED
The data set is described as follows: TP_TRANSPORTER: Western in vivo SD rat, liver. It is filed as functional, organism-based, Sprague-Dawley.

Data set [2] concerns the target T1, Solute carrier organic anion transporter family member 1A4. The data set is described as follows: TP_TRANSPORTER: Northern blot in vivo SD rat, liver. It is filed as functional, organism-based, Sprague-Dawley.

With `CCCC[C@@H](CC)COC(=O)c1ccccc1C(=O)OC[C@@H](CC)CCCC` [BIS(2-ETHYLHEXYL)PHTHALATE], in data set [1], the Activity result is “inducer [+]”.
Consider `Clc1ccc(-c2cc(Cl)c(Cl)cc2Cl)c(Cl)c1` [POLYCHLORINATED BIPHENYL 99], for which, in data set [1], the Activity result is “inducer [+]”.
In the case of `CCC1(c2ccccc2)C(=O)NC(=O)NC1=O` [PHENOBARBITAL], the Activity result in data set [1] is “inducer [+]”.
In the case of `C[C@@H]1C[C@H]2[C@@H]3CCC4=CC(=O)C=C[C@]4(C)[C@@]3(F)[C@@H](O)C[C@]2(C)[C@@]1(O)C(=O)CO` [DEXAMETHASONE], the Activity result in data set [1] is “inducer [+]”.
Consider `CC(=O)S[C@@H]1CC2=CC(=O)CC[C@]2(C)[C@H]2CC[C@@]3(C)[C@@H](CC[C@@]34CCC(=O)O4)[C@H]12` [SPIRONOLACTONE], for which the Activity result in data set [1] is “inducer [+]”.
On the same count and under the same terms, as for `Clc1ccc(-c2cc(Cl)c(Cl)c(Cl)c2)cc1Cl` [POLYCHLORINATED BIPHENYL 126], the entry is “inducer [Decrease]”; as for `Clc1cc2c(cc1Cl)Oc1cc(Cl)c(Cl)cc1O2` [2,3,7,8-TETRACHLORODIBENZO-P-DIOXIN], “inducer [Decrease]”.
As to `CC(=O)[C@H]1[C@H](C#N)C[C@H]2[C@@H]3CC=C4C[C@@H](O)CC[C@]4(C)[C@H]3CC[C@@]21C` [PREGNENOLONE CARBONITRILE], the Activity result in data set [2] and in data set [1] was “inducer [+]” in each case.
As for `C=CCSCC=C` [DIALLYL SULFIDE], the Activity entry in data set [2] and in data set [1] was “inducer [+]” throughout.
Regarding `O=c1cc(-c2ccccc2)oc2ccc3ccccc3c12` [BETA-NAPHTHOFLAVONE], the Activity entry in data set [1] is “inducer [Decrease]”.
With `OCc1c[nH]c2ccccc12` [INDOLE-3-CARBINOL], the Activity entry is “inducer [+]” in data set [2] and “inducer [Decrease]” in data set [1].

The values are drawn from ChEMBL document CHEMBL2074300, “Induction profile of rat organic anion transporting polypeptide 2 (oatp2) by prototypical drug-metabolizing enzyme inducers that activate gene expression through ligand-activated transcription factor pathways” (J Pharmacol Exp Ther, 2002).
